Results reported in patent US4268630A, “Microbiological production of ketones from C3 -C6 alkanes” (priority 1979, dated 1981).

Tests used:
[1] = test system: Torulopsis sp. Strain A1 (NRRL Y-11,419); assay: Oxidation of sec-alcohols to ketones by cell suspensions of yeasts; type: cell-based
[2] = test system: Methanomonas methylovora ATCC 21852; assay: Oxidation of sec-alcohols to ketones by resting cell suspension; type: cell-based
Description: (§1) The pH of the nutrient medium was adjusted to 7.0 by the addition of acid or base and 50 ml. samples of the nutrient medium were charged into a plurality of 300 ml. shaker flasks. The shaker flasks were inoculated with an inoculating loop of cells from an agar plate containing homogeneous colonies of the microorganisms on the plate (the purity of the isolates was confirmed by microscopic examination). The isolates had been maintained on methanol (0.4% V/V) agar plates or on agar plates under an atmosphere of methane and air having a 1:1 V/V gas ratio which had been transferred every two weeks. For growth on methanol, the medium was supplemented with 0.4% methanol. For growth on methane, the gaseous phase of the inoculated flasks was replaced with a gas mixture comprised on methane and air having a ratio of 1:1 on a V/V basis. The inoculated flasks were sealed air-tight and were incubated on a rotary shaker of orbital radius 2.5 cm. at 250 rpm and at 30° C. for two days until turbidity in the medium had developed. The cells were harvested by centrifugation at 10,000×g. at 4° C. for 30 minutes. The cell pellet was washed twice with a 0.05 M phosphate buffer at a pH of 7.0 (containing 0.02 M MgCl2). The washed cells were then suspended in a 0.05 M phosphate buffer at pH 7.0.
(§2) A 0.5 ml. sample of each washed cell suspension (2 mg. cells) was put into 10 ml. vials at 4° C. which were sealed with a rubber cap. The gaseous phase of the vials was removed with vacuum and then was replaced with a gas mixture of the substrate reactant (i.e., alkane or secondary alcohol) and oxygen at a 1:1 V/V ratio. (In the case of a liquid substrate, i.e., secondary alcohol, 10 μl of the substrate was put in the 10 ml. vials). […] Samples of product (1-3 μl) were withdrawn periodically with a microsyringe and the products were analyzed by gas chromatography (ionization flame detector column).
(§3) The procedure in Example 1 was repeated except that a plurality of methanol-utilizing methylotrophic microorganisms were each aerobically grown in a methanol-containing nutrient medium instead of a methane-containing medium. The nutrients in the medium were the same as indicated in Example 1 except that 0.4% V/V methanol was used as the alcohol dehydrogenase inducer and as the major carbon and energy source for growth. The cells were harvested and washed as described in Example 1. The resting microbial cells of the induced methanol-grown methanol-utilizing methylotrophic microorganisms were then contacted with C3 -C6 secondary alcohols in a buffered solution by the procedure of Example 1.
(§4) The procedure in Example 1 was repeated except that the methylotrophic microorganisms were each aerobically grown in an alcohol dehydrogenase-inducing growth medium containing methylamine or methyl formate as the alcohol dehydrogenase enzyme inducer and growth substrate instead of methane. The nutrients in the medium were the same as indicated in Example 1 except that 0.4% V/V of the alcohol dehydrogenase-inducer growth substrate was used as the major carbon and energy source. The cells were harvested and washed as described in Example 1. The resting microbial cells were then contacted with C3 -C6 secondary alcohols in a buffered solution by the conversion procedure of Example 1.

[3] = test system: Pseudomonas sp. ATCC 21438; assay: as above; type: cell-based
Description: as §1, §2, §3, §4

[4] = test system: cell-free soluble extract of Methylococcus capsulatus CRL M1 (NRRL B-11,219); assay: Oxidation of secondary alcohols by cell-free soluble extract (NAD added); type: biochemical; conditions: soluble crude extract, grown on methanol
Description: (§5) To prepare the cell-free secondary alcohol dehydrogenase (SADH) system, the washed cells were disrupted with a Wave Energy Ultrasonic Oscillator, Model W201 (Wave Energy System, Inc., Newtown, Pa.) and centrifuged at 20,000× g. for 30 minutes. […] The enzyme activity was measured with a fluorescence spectrophotometer (Perkin Elmer, Model MPF 44A) by following the formation of reduced NAD (EX 340 nm, Em 460 nm). The formation of reduced NAD was also followed with an absorption spectrophotometer at 340 nm. The assay system (3 ml.) contained: potassium phosphate buffer pH 7.0; 150 μmol.; NAD 1 μmol.; a given amount of enzyme preparation; and secondary alcohol 10 μmol. The reaction was started by the addition of substrate. One unit of enzyme activity represents the reduction of one μmole NAD per minute. Protein concentrations were determined by the Lowry method (J. Biol. Chem., 193: 255-275 (1951)).
(§6) The experimental procedure for the tests reported in Table VIII were as follows: 1 mg protein of crude extract was added into a 0.5 ml. 0.05 M phosphate buffer (pH 7.0) in a 10-ml. vial. […] The reaction mixture was incubated at 30° C. on a water bath. A 3 μl sample was removed with a syringe at 15 min. of incubation and was assayed with g.l.c. Catalytic activity was also assayed by fluorescence spectrophotometry.

[5] = test system: cell-free soluble extract of Methylobacterium organophilum CRL 26 (NRRL B-11,222); assay: as above; type: biochemical; conditions: soluble crude extract, grown on methanol
Description: as §5, §6

[6] = test system: cell-free soluble extract of Methylosinus trichosporium OB3b (NRRL B-11,196); assay: as above; type: biochemical; conditions: soluble crude extract, grown on methanol
Description: as §5, §6

[7] = test system: cell extracts of Torulopsis sp. strain A1 NRRL Y-11,419; assay: NAD+-dependent oxidation of secondary alcohols by cell extracts of yeasts; type: biochemical; conditions: for Conversion Rate, secondary alcohol to methylketone: cell extracts, grown on methanol, NAD+, gas chromatography
[8] = test system: Methylosinus sporium 5 (NRRL B-11,197); assay: Oxidation of sec-alcohols to ketones by resting cell suspension; type: cell-based
Description: as §1, §2
The procedure in Example 1 was repeated wherein a plurality of the methane-utilizing methylotrophic microorganisms were each grown aerobically in a nutrient medium containing methane as the alcohol dehydrogenase enzyme inducer and as the major carbon and energy source for growth. The cells were harvested and washed as described in Example 1. The resting microbial cells of the induced methane-grown methane-utilizing methylotrophic microorganisms were then contacted with C3 -C6 secondary alcohols in a buffered solution by the procedure of Example 1.
In this example, the procedure in Example 1 was repeated except that a plurality of methane-utilizing methylotrophic microorganisms were each aerobically grown in a methanol-containing nutrient medium instead of a methane-containing medium. The nutrients in the medium were the same as indicated in Example 1 except that 0.4% V/V methanol was used as the alcohol dehydrogenase inducer and major source of carbon and energy for growth. Following growth, the cells were harvested and washed as described in Example 1. The resting cells of the induced methanol-grown methylotrophic microorganisms were then contacted with secondary alcohols in a buffered solution by the procedure described in Example 1.

[9] = test system: Candida utilis ATCC 26387; assay: Oxidation of sec-alcohols to ketones by cell suspensions of yeasts; type: cell-based

| Structure (SMILES) | Conversion Rate, sec-alcohol to ketone ([1]; growth substrate Ethanol) | Conversion Rate, sec-alcohol to ketone ([1]; growth substrate Methanol) | Conversion Rate, sec-alcohol to ketone ([1]; growth substrate Methylamine) | Conversion Rate, sec-alcohol to ketone ([1]; growth substrate Methylformate) | Conversion Rate, sec-alcohol to ketone ([1]; growth substrate Propylamine) | Conversion Rates, sec-alcohol to methyl ketone ([2]; methanol-grown, obligate) [μmoles/hr/mg protein] | Conversion Rates, sec-alcohol to methyl ketone ([2]; methyl formate-grown) [μmoles/hr/mg protein] | Conversion Rates, sec-alcohol to methyl ketone ([2]; methylamine-grown) [μmoles/hr/mg protein] | Conversion Rates, sec-alcohol to methyl ketone ([3]; methanol-grown, facultative) [μmoles/hr/mg protein] | Conversion Rates, sec-alcohol to methyl ketone ([3]; methyl formate-grown) [μmoles/hr/mg protein] | Conversion Rates, sec-alcohol to methyl ketone ([3]; methylamine-grown) [μmoles/hr/mg protein] | Oxidation Rate, sec-alcohol to methyl ketone [4] [nmole/min/mg protein] | Oxidation Rate, sec-alcohol to methyl ketone [5] [nmole/min/mg protein] | Oxidation Rate, sec-alcohol to methyl ketone [6] [nmole/min/mg protein] | Conversion Rate, secondary alcohol to methylketone [7] [μmoles/hr/mg Protein] | Conversion Rates, sec-alcohol to methyl ketone ([8]; cells grown on methanol) [μmoles/hr/mg protein] | Conversion Rates, sec-alcohol to methyl ketone ([8]; resting cells grown on methane) [μmoles/hr/mg protein] | Conversion Rate, sec-alcohol to ketone ([9]; growth substrate Ethanol) | Conversion Rate, sec-alcohol to ketone ([9]; growth substrate Methanol) | Conversion Rate, sec-alcohol to ketone ([9]; growth substrate Methylamine) | other results |
| --- | --- | --- | --- | --- | --- | --- | --- | --- | --- | --- | --- | --- | --- | --- | --- | --- | --- | --- | --- | --- | --- |
| CC(C)O [2-Propanol, 2-propanol] | 4.2 μmoles/hr/mg of protein | 4.5 μmoles/hr/mg of protein | 4.3 μmoles/hr/mg of protein | 4.5 μmoles/hr/mg of protein | 3.2 μmoles/hr/mg of protein | 0.28 | 0.62 | 0.82 | 0.45 | 0.52 | 1.0 | 1.7 | 2.1 | 2.0 | 4.5 | 0.45 | 0.30 | 5.2 μmoles/hr/mg of protein | 6.2 μmoles/hr/mg of protein | 5.0 μmoles/hr/mg of protein | Conversion Rate, sec-alcohol to ketone ([9]; growth substrate Methylformate): 5.6 μmoles/hr/mg of protein; Conversion Rate, sec-alcohol to ketone ([9]; growth substrate Propylamine): 4.2 μmoles/hr/mg of protein |
| CCC(C)O (stereo not drawn) [2-Butanol, 2-butanol] | 4.7 μmoles/hr/mg of protein | 4.9 μmoles/hr/mg of protein | 4.5 μmoles/hr/mg of protein | 4.9 μmoles/hr/mg of protein | 3.8 μmoles/hr/mg of protein | 2.5 | 2.1 | 3.2 | 3.2 | 3.2 | 2.1 | 2.0 | 2.5 | 2.4 | 4.9 | 3.5 | 3.0 | 5.2 μmoles/hr/mg of protein | 6.8 μmoles/hr/mg of protein | 5.0 μmoles/hr/mg of protein | specific activities ([7]; spectrophotometric, 2-butanol as substrate): 62 nmoles NAD^+ reduced per min. per mg. protein; Conversion Rate, sec-alcohol to ketone ([9]; growth substrate Methylformate): 6.2 μmoles/hr/mg of protein; Conversion Rate, sec-alcohol to ketone ([9]; growth substrate Propylamine): 4.2 μmoles/hr/mg of protein |
